Measured values published in patent US10626113B2, “Phosphodiesterase inhibitors and uses thereof” (THE TRUSTEES OF COLUMBIA UNIVERSITY IN THE CITY OF NEW YORK, priority 2012, dated 2020).

What was measured:
PDE5 = PDE5 (Homo sapiens (Human), UniProt O76074); test: PDE5 inhibition assay (BPS PDE assay kit, fluorescence polarization); assay type: biochemical; conditions: Table 1; 100 nM FAM-cGMP
Procedure: Materials and Methods: PDE5 inhibition was assayed at BPS Bioscience (San Diego, Calif.) using BPS PDE assay kits (BPS Catalog number 60300, enzyme lot 090810). Test compounds were supplied as liquid solutions of 10 mM concentration in DMSO. Sildenafil, used as a standard was dissolved in DMSO. Intermediate dilutions were 10% DMSO in PDE assay buffer and tests at ranges from 0.1 to 100 nM. 0.1 ng of enzyme was used per reaction, and the substrate was 100 nM FAM-cGMP.
Assay conditions: A series of dilutions of the test compounds were prepared with 10% DMSO in assay buffer and 5 μl of the dilution was added to a 50 μl reaction so that the final concentration of DMSO is 1% in all of reactions. The enzymatic reactions were conducted at room temperature for 60 minutes in a 50 μl mixture containing PDE assay buffer, 100 nM FAM-cAMP or 100 nM FAM-cGMP, a PDE enzyme, and the test compound. After the enzymatic reaction, 100 μl of a binding solution (1:100 dilution of the binding agent with the binding agent diluent) was added to each reaction and the reaction was performed at room temperature for 60 minutes. Fluorescence intensity was measured at an excitation of 485 nm and an emission of 528 nm using a Tecan Infinite M1000 microplate reader.
Data analysis: PDE activity assays were performed in duplicate at each concentration. Fluorescence intensity is converted to fluorescence polarization using the Tecan Magellan6 software. The fluorescence polarization data were analyzed using the computer software, Graphpad Prism. The fluorescence polarization (FPt) in absence of the compound in each data set was defined as 100% activity. In the absence of PDE and the compound, the value of fluorescent polarization (FPb) in each data set was defined as 0% activity. The percent activity in the presence of the compound was calculated according to the following equation: % activity=(FP−FPb)/(FPt−FPb)×100%, where FP=the fluorescence polarization in the presence of the compound.
The values of % activity versus a series of compound concentrations were then plotted using non-linear regression analysis of Sigmoidal dose-response curve generated with the equation Y=B+(T−B)/1+10^((LogEC50-X)×Hill Slope), where Y=percent activity, B=minimum percent activity, T=maximum percent activity, X=logarithm of compound and Hill Slope=slope factor or Hill coefficient. The IC50 value was determined by the concentration causing a half-maximal percent activity.

APP/PS1 mice = test: Contextual fear conditioning (fear memory); assay type: in vivo; conditions: 3 mg/kg i.p. for 3 weeks
Procedure: Fear conditioning was assessed as described in B. Gong, O. V. Vitolo, F. Trinchese, S. Liu, M. Shelanski, O. Arancio, Persistent improvement in synaptic and cognitive functions in an Alzheimer mouse model after rolipram treatment, J. Clin. Invest. 114 (2004) 1624-1634; F. Trinchese, S. Liu, F. Battaglia, S. Walter, P. M. Mathews, O. Arancio, Progressive age-related development of Alzheimer-like pathology in APP/PS1 mice, Ann. Neurol. 55 (2004) 801-814; and B. Gong, Z. Cao, P. Zheng, O. V. Vitolo, S. Liu, A. Staniszewski, D. Moolman, H. Zhang, M. Shelanski, O. Arancio, Ubiquitin hydrolase Uch-L1 rescues beta-amyloid-induced decreases in synaptic function and contextual memory, Cell 126 (2006) 775-788; each herein incorporated by reference in its entirety. […] Freezing behavior, defined as the absence of movements except for respiratory excursions, was scored using Freezeview software (Med Associates, St. Albans, Vt.). Contextual fear learning was evaluated 24 hrs after training by measuring freezing responses for 5 min in the same chamber where the mice were trained. Cued fear learning was evaluated 24 hrs after contextual testing. The mice were placed in a novel context for 2 min (pre-CS test), after which they were given a CS for 3 min (CS test), and freezing behavior was measured during the first 30 sec that mimic the CS-US conditioning and the remaining 2.5 min. […]

COc1ccc(CNc2c3c(nc4ccc(C#N)cc24)CCN(C(C)=O)C3)cc1Cl [Compound H, 2-acetyl-10-[(3-chloro-4-methoxybenzyl)amino]-1,2,3,4-tetrahydrobenzo[b][1,6]naphthyridine-8-carbonitrile]
IC50 (PDE5): 0.056 nM | effect on contextual fear memory of WT mice (APP/PS1 mice): no effect
